From publication PMC11124394, “Novel Combretastatin A-4 Analogs—Design, Synthesis, and Antiproliferative and Anti-Tubulin Activity” (Molecules, 2024)

Key:
[1] = test system: SW620 (metastatic colon cancer) cells; experiment: SRB cytotoxicity assay, SW620; assay type: cell-based; conditions: Homo sapiens, SW-620; SRB assay, 48 h culture, mean ± SD, at least three independent experiments; compounds marked * : low solubility, real values might be lower; read-out: Cytotoxicity IC50, SW620
Protocol: (§1) The antiproliferative activity was tested on human primary (SW480) and metastatic (SW620) colon cancer, human prostate cancer (PC3), human liver cancer (HepG2), human breast cancer (MDA), human lung cancer (A549), and human immortalized keratinocyte (HaCaT) cell lines obtained from the American Type Culture Collection (ATCC, Rockville, MD, USA). The cells were cultured in EMEM (SW480 and SW620), RPMI 1640 (PC3) or DMEM High Glucose (HepG2, MDA, A549, and HaCaT) with stable glutamine supplemented with 10% heat-inactivated fetal bovine serum (FBS), penicillin (100 U/mL), and streptomycin (100 µg/mL) in 37 °C and 5% CO2/95% air humified incubator. The cells were grown until 80–90% confluence and then were harvested with 0.25% trypsin and used for the experiments. All the reagents for the cell culture were provided by VWR Chemicals.
(§2) Cytotoxicity was tested with the sulforhodamine B (SRB) assay according to the National Cancer Institute protocol with slight modifications. Briefly, cells were seeded on a 96-well plate (5 × 10^3 cells per well). After 24 h incubation, zero-time control cells were fixed with TCA (final concentration 5%) for 1 h at 4 °C. […] The untreated cells were used as the control. After incubation, the cells were fixed with TCA (final concentration 5%) for 1 h at 4 °C, gently washed 4 times with tap water, and left for drying. The dried fixed cells were incubated with SRB solution (0.05% SRB in 1% acetic acid) for 30 min rt, washed four times with 1% acetic acid, and left for drying. The dried cells were dissolved in 10 mM Tris-base solution (pH 10.5) and the absorbance was read at 510 nm.
(§3) The cell viability was presented as a percent of SRB reduction in the treated cells versus that in control cells. The mean absorbance for control cells was assumed as 100%. No-cell control (blank well) absorbance was assumed as 0%, unless the compound was cytostatic, then 0% referred to zero-time control. The IC50 values were calculated using the GraphPad Prism 10.1.2 (324) (USA) software. The most cytotoxic compounds (8 and 20) were selected for further in vitro experiments.

[2] = test system: PC3 (prostate cancer) cells; experiment: SRB cytotoxicity assay, PC3; assay type: cell-based; conditions: Homo sapiens; SRB assay, 48 h culture, mean ± SD, at least three independent experiments; compounds marked * : low solubility, real values might be lower; read-out: Cytotoxicity IC50, PC3
Protocol: as §1, §2, §3

HaCaT cells = experiment: Cell cycle analysis (PI, flow cytometry), HaCaT; assay type: cell-based, human; conditions: 24 h treatment; for Cell cycle phase arrest (ratio G2/M to G0/G1): 1.5 and 2 nM CA4, 25, 30, 40 mM 8, 15, 20, 30 mM 20
Protocol: (§4) The cell cycle was assessed for the compounds 8 and 20 and the combretastatin CA4 as a reference compound. The compounds were most cytotoxic to the MDA and A549 cancerous cell lines; thus, these cell lines were selected for further analyses. The HaCaT cell line was chosen to represent non-cancer cells. For the experiment, the cells were seeded on 6-well plates (5 × 10^4 cells per well). After 24 h of incubation, the cells were treated with the compounds in selected concentrations (1.5 and 2 nM for CA4; […]) and incubated for the next 24 h. Then, the cells were detached with 0.25% trypsin, washed with 0.9% NaCl, and fixed with 70% ethanol at 4 °C for at least 16 h. For drying, the cells were washed twice with 0.9% NaCl, resuspended in 50 μg/mL propidium iodide (PI) and 100 μg/mL RNase in PBS and incubated for 30 min at 37 °C. The cell cycle distribution was analyzed by flow cytometer (FACS Verse, Becton, Dickinson and Company, Franklin Lakes, NJ, USA).

MDA cells = experiment: Cell cycle analysis (PI, flow cytometry), MDA; assay type: cell-based, human; conditions: 24 h treatment; for Cell cycle phase arrest (ratio G2/M to G0/G1): 1.5 and 2 nM CA4, 25, 30, 40 mM 8, 15, 20, 30 mM 20
Protocol: as §4

A549 cells = experiment: Cell cycle analysis (PI, flow cytometry), A549; assay type: cell-based, human; conditions: A549, 24 h treatment; for Cell cycle phase arrest (ratio G2/M to G0/G1): 1.5 and 2 nM CA4, 25, 30, 40 mM 8, 15, 20, 30 mM 20
Protocol: as §4

[3] = test system: MDA (breast cancer) cells; experiment: SRB cytotoxicity assay, MDA; assay type: cell-based; conditions: Homo sapiens; SRB assay, 48 h culture, mean ± SD, at least three independent experiments; compounds marked * : low solubility, real values might be lower; read-out: Cytotoxicity IC50, MDA
Protocol: as §1, §2, §3

[4] = SRB cytotoxicity assay, HaCaT; assay type: cell-based; conditions: human, 48 h culture, mean ± SD, at least three independent experiments, compounds marked * : low solubility, real values might be lower
Protocol: as §1, §2, §3

A549 (lung cancer) cells = experiment: SRB cytotoxicity assay, A549; assay type: cell-based; conditions: Homo sapiens, A549; SRB assay, 48 h culture, mean ± SD, at least three independent experiments; compounds marked * : low solubility, real values might be lower; read-out: Cytotoxicity IC50, A549
Protocol: as §1, §2, §3

[5] = test system: six human cancer cell lines (SW480, SW620, PC3, HepG2, MDA, A549) and HaCaT; experiment: SRB cytotoxicity assay, whole panel; assay type: cell-based; conditions: Homo sapiens, depending on the compound and cell line, read-out: IC50 over the cell line panel
Protocol: The antiproliferative properties of the studied combretastatin derivatives were tested on six human cancer cell lines, including primary colon (SW480), metastatic colon (SW620), prostate (PC3), liver (HepG2), breast (MDA), and lung (A549) cancer cells, and non-tumor human immortalized keratinocyte cell line (HaCaT) using the sulforhodamine B (SRB) assay. […] No selectivity was observed against the tumor cell lines when compared to that against the non-tumor cell line. Nevertheless, these values were much higher than the IC50 of the reference compounds (<0.2 μM).
as §1, §2, §3

[6] = test system: SW480 (primary colon cancer) cells; experiment: SRB cytotoxicity assay, SW480; assay type: cell-based; conditions: Homo sapiens, SW480; SRB assay, 48 h culture, mean ± SD, at least three independent experiments; compounds marked * : low solubility, real values might be lower; read-out: Cytotoxicity IC50, SW480
Protocol: as §1, §2, §3

tubulin = experiment: In vitro tubulin polymerization (turbidometry at 340 nm, BK004P kit); assay type: biochemical, porcine; conditions: for Concentration dependence of the acceleration of tubulin polymerization: 20 and 100 μM; for Effect on in vitro tubulin polymerization: 37 °C, 60 min, absorbance 340 nm, CA-4 5 μM, colchicine 5 μM, compounds 8 and 20 at 20 or 100 μM
Protocol: The kinetics of microtubule assembly was assessed by measuring absorbance at 340 nm over time.
The assembly of purified bovine tubulin was monitored using a BK004P kit, purchased from Cytoskeleton Inc. (Denver, CO, USA). The assay was performed according to the manufacturer’s instructions using the standard assay conditions. […] Light was scattered proportionally to the concentration of the polymerized microtubules in the assay. Then, the tubulin assembly was monitored by turbidometry at 340 nm in a MultiscanGo spectrophotometer (ThermoFisher Scientific, Carlsbad, CA, USA) for 60 min. The time dependence of the tubulin polymerization was presented in the form of graphs prepared in the GraphPad Prism 8.4.3.686 (Boston, MA, USA) software.

[7] = test system: HepG2 (liver cancer) cells; experiment: SRB cytotoxicity assay, HepG2; assay type: cell-based; conditions: Homo sapiens, HepG2; SRB assay, 48 h culture, mean ± SD, at least three independent experiments; compounds marked * : low solubility, real values might be lower; read-out: Cytotoxicity IC50, HepG2
Protocol: as §1, §2, §3

[8] = design: method as in earlier work; conditions: in contrast to the original compound; cited from earlier work
[9] = HaCaT immortalized keratinocyte cells (non-tumor cell line)

Row | SMILES | IC50 [1] | IC50 [2] | DNA fragmentation (subG1 phase) (HaCaT cells) | Cell cycle phase arrest (ratio G2/M to G0/G1) (HaCaT cells) | Cell cycle phase arrest (ratio G2/M to G0/G1) (MDA cells) | DNA fragmentation (subG1 phase) (A549 cells) | Cell cycle phase arrest (ratio G2/M to G0/G1) (A549 cells) | IC50 [3] | IC50 at 48 h [4, 9] | IC50 (A549 (lung cancer) cells) | IC50 [5] | IC50 [6] | Concentration dependence of the acceleration of tubulin polymerization (tubulin) | Effect on in vitro tubulin polymerization (tubulin) | IC50 [7] | DNA fragmentation (subG1 phase) (MDA cells) | IC50 at 48 h ([4]; non-tumor cell line) | Water solubility [8]
1 | CCCCN(CCCC)C(=O)/C(=C/c1cc(OC)c(OC)c(OC)c1)c1ccc(OC)c(Br)c1 [Compound 20] | 20.9 ± 2.9 µM | 23.7 ± 10.3 µM | appearance of the subG1 phase was observed | G0/G1 phase arrest | G0/G1 phase arrest | certain differences were noted | G0/G1 phase arrest | 19 ± 7.1 µM | 20.5 ± 9.7 µM | 19.4 ± 2.2 µM | 18.8 to 32.7 µM | 18.8 ± 0.8 µM | on a similar level | enhanced tubulin polymerization | 25.8 ± 9.6 µM |  |  | 
2 | COc1ccc(/C(=C\c2cc(OC)c(OC)c(OC)c2)C(=O)OCCCCBr)cc1Br [Compound 8] | 24.2 ± 8.4 µM | 31 ± 5.5 µM | appearance of the subG1 phase was observed | G0/G1 phase arrest | not observed | certain differences were noted | G0/G1 phase arrest | 23.1 ± 7.7 µM | 23.9 ± 3.9 µM | 19.6 ± 2 µM | 18.8 to 32.7 µM | 32.7 ± 6.7 µM | concentration-dependent | enhanced tubulin polymerization | 25.5 ± 6.3 µM | statistically significant differences between subG1 populations were observed |  | 
3 | COc1ccc(/C=C\c2cc(OC)c(OC)c(OC)c2)cc1O [CA4, combretastatin A-4] | 0.00221 ± 0.00088 µM | 0.0021 ± 0.00026 µM | appearance of the subG1 phase was observed | G2 phase arrest | no statistically significant differences |  | no statistically significant differences | 0.00372 ± 0.00027 µM |  | 0.00343 ± 0.00096 µM |  | 0.00281 ± 0.00017 µM |  | inhibited tubulin polymerization | 0.00158 ± 0.00019 µM | statistically significant differences between subG1 populations were observed | 0.00427 ± 0.00047 µM | 
4 | COc1ccc(/C=C\c2cc(OC)c(OC)c(OC)c2)cc1OP(=O)(O)O [Combretastatin A4 phosphate, combretastatin A-4 disodium phosphate] |  |  |  |  |  |  |  |  |  |  |  |  |  |  |  |  |  | water-soluble
